Results taken from patent US10463644B2, “Uses of sesquiterpene lactone compounds and their derivatives in drugs preparation” (ACCENDATECH, priority 2013, dated 2019).
Like-named read-outs stand apart in the source and are kept apart here.

How the values were obtained:
[1] = test system: IL-1β secreted by synoviocyte; assay: Content of IL-1β in culture supernatant of synoviocyte of RA model rats given test compound; assay type: in vivo; conditions: rat RA model, dose 30 mg/kg.2d; normal control 0.16 ± 0.034, NaCl 0.49 ± 0.136
How it was run: (§1)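 Animals with induced RA are grouped and dosed with compound (30 mg/kg.2d) alongside NaCl and normal controls. Synoviocytes are prepared and cultured, and supernatants are harvested. TNF-α and PGE2 secretion are then quantified by one procedure, IL-1β by another.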

[2] = test system: PGE2 secreted by synoviocyte; assay: Content of PGE2 in culture supernatant of synoviocyte of RA model rats given test compound; assay type: in vivo; conditions: rat RA model, dose 30 mg/kg.2d; normal control 8.34 ± 1.29, NaCl 32.44 ± 10.32
How it was run: as §1

[3] = test system: cancer stem cells; assay: Survival rate of cancer stem cells after test compound is added (flow cytometry, Annexin V-FITC/PI, clinical specimen); assay type: cell-based, patient; conditions: Homo sapiens, 18 h
How it was run: (§2)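 Patient tumour or leukaemia cells, identified by cancer-specific stem-cell markers (CD34+/CD38+ for AML), are treated with compound for 18 hours in serum-free IMDM. Apoptosis is then measured as Annexin V-FITC/PI staining by flow cytometry.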

[4] = test system: cancer cells; assay: Survival rate of cancer cells after test compound is added (flow cytometry, Annexin V-FITC/PI, clinical specimen); assay type: cell-based, patient; conditions: Homo sapiens, 18 h, read-out: Survival rate (%) All cells (Stem cells and ordinary cells)
How it was run: as §2

[5] = test system: normal cells; assay: Survival rate of normal cells after test compound is added (flow cytometry, Annexin V-FITC/PI); assay type: cell-based; conditions: 18 h
How it was run: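 Mononuclear cells from fresh or cryopreserved clinical samples, isolated by Ficoll gradient and held in serum-free IMDM (1×10^6/mL), received compound for 18 h. After labelling with marker antibodies (CD34+CD38+ for AML), Annexin V-FITC and PI staining was analysed by flow cytometry.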

[6] = Head and neck squamous cell carcinomas
[7] = read-out: Survival rate (%) All cells (Stem cells and ordinary cells)
[8] = read-out: Survival rate (%) Stem cells

For `CN(C)C[C@@H]1C(=O)O[C@H]2[C@H]1CCC1(CC1)[C@@H]1CCC3(CC3)[C@H]21` [Compound 35], the “Content of IL-1β in culture supernatant of synoviocyte (x ± s)” value [1] was 0.41 ± 0.056 ng/mL, the “Content of PGE2 in culture supernatant of synoviocyte (x ± s)” value [2] was 21.54 ± 1.32 ng/mL and the viability at 10 µM ([3]; AML) was 82%. For the same compound, the viability at 20 µM ([3]; AML) was 73%, the viability at 10 µM ([3]; Brain glioma) was 84% and the viability at 20 µM ([3]; Brain glioma) was 78%. It also gave a viability at 10 µM ([3]; Brain tumor) of 81%, a viability at 20 µM ([3]; Brain tumor) of 75% and a viability at 10 µM ([3]; Breast cancer) of 86%. It also gave a viability at 20 µM ([3]; Breast cancer) of 78%, a viability at 10 µM ([3]; CLL) of 81% and a viability at 20 µM ([3]; CLL) of 75%. It also gave a viability at 10 µM ([3]; CML) of 84%, a viability at 20 µM ([3]; CML) of 78% and a viability at 10 µM ([3]; Children hepatoblastoma) of 87%. It also gave a viability at 20 µM ([3]; Children hepatoblastoma) of 76%, a viability at 10 µM ([3]; Colon adenocarcinoma) of 84% and a viability at 20 µM ([3]; Colon adenocarcinoma) of 78%. It also gave a viability at 10 µM ([3]; Colorectal cancer) of 82%, a viability at 20 µM ([3]; Colorectal cancer) of 73% and a viability at 10 µM ([3]; Gastric cancer) of 85%. For the same compound, the viability at 20 µM ([3]; Gastric cancer) was 77%, the viability at 10 µM ([3]; Gastrointestinal tumor) was 85% and the viability at 20 µM ([3]; Gastrointestinal tumor) was 77%. For the same compound, the viability at 10 µM ([3]; Glioma) was 81%, the viability at 20 µM ([3]; Glioma) was 75% and the viability at 10 µM [3, 6] was 82%. For the same compound, the viability at 20 µM [3, 6] was 73%, the viability at 10 µM ([3]; Laryngeal cancer) was 82% and the viability at 20 µM ([3]; Laryngeal cancer) was 76%. It also gave a viability at 10 µM ([3]; Liver cancer) of 84%, a viability at 20 µM ([3]; Liver cancer) of 74% and a viability at 10 µM ([3]; Lung adenocarcinoma) of 82%. For the same compound, the viability at 20 µM ([3]; Lung adenocarcinoma) was 73%, the viability at 10 µM ([3]; Lung cancer) was 84% and the viability at 20 µM ([3]; Lung cancer) was 78%. The viability at 10 µM ([3]; Malignant melanoma) was 87%, the viability at 20 µM ([3]; Malignant melanoma) was 75% and the viability at 10 µM ([3]; Nasopharynx cancer) was 86%. It also gave a viability at 20 µM ([3]; Nasopharynx cancer) of 78%, a viability at 10 µM ([3]; Ovarian cancer) of 84% and a viability at 20 µM ([3]; Ovarian cancer) of 78%. The viability at 10 µM ([3]; Pancreatic cancer) was 79%, the viability at 20 µM ([3]; Pancreatic cancer) was 72% and the viability at 10 µM ([3]; Prostate cancer) was 85%. The viability at 20 µM ([3]; Prostate cancer) was 79%, the viability at 10 µM ([3]; Retinoblastoma) was 88% and the viability at 20 µM ([3]; Retinoblastoma) was 81%. It also gave a viability at 10 µM ([3]; Skin cancer) of 85%, a viability at 20 µM ([3]; Skin cancer) of 77% and a viability at 10 µM ([4]; AML) of 91%. It also gave a viability at 20 µM ([4]; AML) of 87%, a viability at 10 µM ([4]; Brain glioma) of 92% and a viability at 20 µM ([4]; Brain glioma) of 87%. For the same compound, the viability at 10 µM ([4]; Brain tumor) was 87%, the viability at 20 µM ([4]; Brain tumor) was 83% and the viability at 10 µM ([4]; Breast cancer) was 93%. The viability at 20 µM ([4]; Breast cancer) was 92%, the viability at 10 µM ([4]; CLL) was 87% and the viability at 20 µM ([4]; CLL) was 83%. It also gave a viability at 10 µM ([4]; CML) of 91%, a viability at 20 µM ([4]; CML) of 88% and a viability at 10 µM ([4]; Children hepatoblastoma) of 94%. For the same compound, the viability at 20 µM ([4]; Children hepatoblastoma) was 87%, the viability at 10 µM ([4]; Colon adenocarcinoma) was 91% and the viability at 20 µM ([4]; Colon adenocarcinoma) was 88%. For the same compound, the viability at 10 µM ([4]; Colorectal cancer) was 91%, the viability at 20 µM ([4]; Colorectal cancer) was 87% and the viability at 10 µM ([4]; Gastric cancer) was 92%. The viability at 20 µM ([4]; Gastric cancer) was 89%, the viability at 10 µM ([4]; Gastrointestinal tumor) was 92% and the viability at 20 µM ([4]; Gastrointestinal tumor) was 89%. It also gave a viability at 10 µM ([4]; Glioma) of 87%, a viability at 20 µM ([4]; Glioma) of 83% and a viability at 10 µM [4, 6] of 91%. For the same compound, the viability at 20 µM [4, 6] was 87%, the viability at 10 µM ([4]; Laryngeal cancer) was 89% and the viability at 20 µM ([4]; Laryngeal cancer) was 86%. The viability at 10 µM ([4]; Liver cancer) was 89%, the viability at 20 µM ([4]; Liver cancer) was 86% and the viability at 10 µM ([4]; Lung adenocarcinoma) was 91%. It also gave a viability at 20 µM ([4]; Lung adenocarcinoma) of 87%, a viability at 10 µM ([4]; Lung cancer) of 91% and a viability at 20 µM ([4]; Lung cancer) of 88%. For the same compound, the viability at 10 µM ([4]; Malignant melanoma) was 91%, the viability at 20 µM ([4]; Malignant melanoma) was 84% and the viability at 10 µM ([4]; Nasopharynx cancer) was 93%. It also gave a viability at 20 µM ([4]; Nasopharynx cancer) of 92%, a viability at 10 µM ([4]; Ovarian cancer) of 91% and a viability at 20 µM ([4]; Ovarian cancer) of 88%. For the same compound, the viability at 10 µM ([4]; Pancreatic cancer) was 88%, the viability at 20 µM ([4]; Pancreatic cancer) was 81% and the viability at 10 µM ([4]; Prostate cancer) was 88%. For the same compound, the viability at 20 µM ([4]; Prostate cancer) was 85%, the viability at 10 µM ([4]; Retinoblastoma) was 91% and the viability at 20 µM ([4]; Retinoblastoma) was 89%. It also gave a viability at 10 µM ([4]; Skin cancer) of 92%, a viability at 20 µM ([4]; Skin cancer) of 89% and a viability at 10 µM [5, 7] of 95%. It also gave a viability at 10 µM [5, 8] of 91%, a viability at 20 µM [5, 7] of 94% and a viability at 20 µM [5, 8] of 90%.
